Series [1] concerns the target T1, Alpha-2C adrenergic receptor (Homo sapiens, UniProt P18825).
T1 sequence (P18825 whole entry): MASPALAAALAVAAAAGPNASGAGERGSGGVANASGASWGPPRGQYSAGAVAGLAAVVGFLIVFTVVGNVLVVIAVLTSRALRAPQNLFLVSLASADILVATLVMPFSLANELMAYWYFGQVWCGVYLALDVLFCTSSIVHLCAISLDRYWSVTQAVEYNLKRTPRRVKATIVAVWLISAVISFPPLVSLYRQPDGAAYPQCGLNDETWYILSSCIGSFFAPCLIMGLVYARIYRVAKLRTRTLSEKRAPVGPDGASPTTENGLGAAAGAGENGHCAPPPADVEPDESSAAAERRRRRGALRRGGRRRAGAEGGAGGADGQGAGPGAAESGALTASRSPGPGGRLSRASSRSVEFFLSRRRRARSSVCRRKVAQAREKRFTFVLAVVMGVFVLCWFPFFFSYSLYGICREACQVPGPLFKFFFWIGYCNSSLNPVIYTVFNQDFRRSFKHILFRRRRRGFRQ
Kind of series: DRUGMATRIX: Adrenergic Alpha-2C radioligand binding (ligand: [3H] MK-912). The series is classed as cell membranes, Sf9, Membrane.

Series [2] has as its target Beta-1 adrenergic receptor (Homo sapiens, UniProt P08588). As to the kind of experiment: DRUGMATRIX: Adrenergic beta1 radioligand binding (ligand: [125I] Cyanopindolol). The series is classed as cell membranes, CHO-K1, Membrane. Conditions: cho-k1; Not Active = under 50% inhibition at 10 µM.
Series [3] in a line: DRUGMATRIX: Serotonin (5-Hydroxytryptamine) 5-HT3 radioligand binding (ligand: [3H] GR-65630). The series is classed as cell membranes, Membrane. Conditions: hek293; Not Active = under 50% inhibition at 10 µM.
Series [4] has as its target T2, C-X-C chemokine receptor type 1 (Homo sapiens, UniProt P25024). Note: in other assays of this panel Not Active means under 50% inhibition at 10 µM.
T2 sequence (P25024 whole entry): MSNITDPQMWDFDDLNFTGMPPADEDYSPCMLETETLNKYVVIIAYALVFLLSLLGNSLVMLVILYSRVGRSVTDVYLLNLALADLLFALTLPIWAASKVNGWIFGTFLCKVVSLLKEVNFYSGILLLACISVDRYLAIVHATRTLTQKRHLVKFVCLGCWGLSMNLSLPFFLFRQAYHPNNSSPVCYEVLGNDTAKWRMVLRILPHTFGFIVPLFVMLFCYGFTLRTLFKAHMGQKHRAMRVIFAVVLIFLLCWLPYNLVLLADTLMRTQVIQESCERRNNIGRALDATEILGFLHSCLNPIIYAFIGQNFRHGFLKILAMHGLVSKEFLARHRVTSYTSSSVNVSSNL

For series [5], the target named is T3, C-X-C chemokine receptor type 2 (Homo sapiens, UniProt P25025). Note: in other assays of this panel Not Active means under 50% inhibition at 10 µM.
T3 sequence (P25025 whole entry): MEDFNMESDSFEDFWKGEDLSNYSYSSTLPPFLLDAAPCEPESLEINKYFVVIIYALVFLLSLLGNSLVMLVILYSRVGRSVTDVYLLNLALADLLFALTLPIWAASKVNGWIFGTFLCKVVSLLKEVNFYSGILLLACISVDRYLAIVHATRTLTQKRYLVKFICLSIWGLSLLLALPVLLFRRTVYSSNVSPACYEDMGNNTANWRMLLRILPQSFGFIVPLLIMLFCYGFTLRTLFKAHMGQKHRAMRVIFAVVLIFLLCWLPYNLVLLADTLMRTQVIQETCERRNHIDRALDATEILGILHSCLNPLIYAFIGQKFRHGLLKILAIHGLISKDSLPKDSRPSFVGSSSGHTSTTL
The series is classed as cell membranes, Membrane. Conditions: cho-k1.

The nature of series [6]: DRUGMATRIX: Phorbol Ester radioligand binding (ligand: [3H] PDBu). The series is classed as cell membranes, Mus musculus, ICR, Brain, Membrane. Conditions: Not Active = under 50% inhibition at 10 µM.
For another series, the target named is T4, Cathepsin G (Homo sapiens, UniProt P08311).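 Note: inhibition of Cathepsin G enzyme activity, tested on an AMC-conjugated peptide substrate; in other assays of this panel Not Active means under 50% inhibition at 10 µM.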
T4 sequence (P08311 whole entry): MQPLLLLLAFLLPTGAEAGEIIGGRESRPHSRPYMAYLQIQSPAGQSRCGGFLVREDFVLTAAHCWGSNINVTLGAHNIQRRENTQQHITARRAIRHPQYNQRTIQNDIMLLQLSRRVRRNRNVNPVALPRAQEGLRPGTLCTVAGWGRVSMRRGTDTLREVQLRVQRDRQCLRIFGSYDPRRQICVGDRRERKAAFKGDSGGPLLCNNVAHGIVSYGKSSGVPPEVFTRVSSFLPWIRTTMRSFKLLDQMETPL
The series is classed as tissue-based. Conditions: neutrophil.

The target of a further series is T5, Cytochrome P450 2A6 (Homo sapiens, UniProt P11509). Note: in other assays of this panel Not Active means under 50% inhibition at 10 µM.
T5 sequence (P11509 whole entry): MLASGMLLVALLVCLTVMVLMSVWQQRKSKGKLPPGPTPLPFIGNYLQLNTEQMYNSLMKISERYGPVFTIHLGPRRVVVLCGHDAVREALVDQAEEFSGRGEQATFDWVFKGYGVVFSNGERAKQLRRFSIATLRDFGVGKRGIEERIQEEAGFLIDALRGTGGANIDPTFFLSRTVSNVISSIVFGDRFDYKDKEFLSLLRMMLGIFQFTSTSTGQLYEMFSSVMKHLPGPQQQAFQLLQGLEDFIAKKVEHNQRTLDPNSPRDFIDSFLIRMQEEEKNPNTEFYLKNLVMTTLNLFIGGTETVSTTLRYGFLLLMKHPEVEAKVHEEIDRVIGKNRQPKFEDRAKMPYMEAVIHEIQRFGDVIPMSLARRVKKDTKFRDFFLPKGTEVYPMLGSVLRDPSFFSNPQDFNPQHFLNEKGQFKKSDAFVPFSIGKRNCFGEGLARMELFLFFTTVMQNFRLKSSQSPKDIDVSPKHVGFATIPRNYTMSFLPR
Conditions: bti-tn-5b1-4.

Series [7] concerns the target Voltage-gated inwardly rectifying potassium channel KCNH2 (Homo sapiens, UniProt Q12809). As to conditions: hek293. Note: in other assays of this panel Not Active means under 50% inhibition at 10 µM.

Consider 6 compounds from ChEMBL document CHEMBL1909046, “DrugMatrix in vitro pharmacology data”.

Usually IC50 stands for the concentration needed to halve the response being measured. For orientation: Ki means the dissociation constant of the complex between target and ligand, obtained from inhibition or displacement.

Sequence of Voltage-gated inwardly rectifying potassium channel KCNH2 (Q12809 whole entry): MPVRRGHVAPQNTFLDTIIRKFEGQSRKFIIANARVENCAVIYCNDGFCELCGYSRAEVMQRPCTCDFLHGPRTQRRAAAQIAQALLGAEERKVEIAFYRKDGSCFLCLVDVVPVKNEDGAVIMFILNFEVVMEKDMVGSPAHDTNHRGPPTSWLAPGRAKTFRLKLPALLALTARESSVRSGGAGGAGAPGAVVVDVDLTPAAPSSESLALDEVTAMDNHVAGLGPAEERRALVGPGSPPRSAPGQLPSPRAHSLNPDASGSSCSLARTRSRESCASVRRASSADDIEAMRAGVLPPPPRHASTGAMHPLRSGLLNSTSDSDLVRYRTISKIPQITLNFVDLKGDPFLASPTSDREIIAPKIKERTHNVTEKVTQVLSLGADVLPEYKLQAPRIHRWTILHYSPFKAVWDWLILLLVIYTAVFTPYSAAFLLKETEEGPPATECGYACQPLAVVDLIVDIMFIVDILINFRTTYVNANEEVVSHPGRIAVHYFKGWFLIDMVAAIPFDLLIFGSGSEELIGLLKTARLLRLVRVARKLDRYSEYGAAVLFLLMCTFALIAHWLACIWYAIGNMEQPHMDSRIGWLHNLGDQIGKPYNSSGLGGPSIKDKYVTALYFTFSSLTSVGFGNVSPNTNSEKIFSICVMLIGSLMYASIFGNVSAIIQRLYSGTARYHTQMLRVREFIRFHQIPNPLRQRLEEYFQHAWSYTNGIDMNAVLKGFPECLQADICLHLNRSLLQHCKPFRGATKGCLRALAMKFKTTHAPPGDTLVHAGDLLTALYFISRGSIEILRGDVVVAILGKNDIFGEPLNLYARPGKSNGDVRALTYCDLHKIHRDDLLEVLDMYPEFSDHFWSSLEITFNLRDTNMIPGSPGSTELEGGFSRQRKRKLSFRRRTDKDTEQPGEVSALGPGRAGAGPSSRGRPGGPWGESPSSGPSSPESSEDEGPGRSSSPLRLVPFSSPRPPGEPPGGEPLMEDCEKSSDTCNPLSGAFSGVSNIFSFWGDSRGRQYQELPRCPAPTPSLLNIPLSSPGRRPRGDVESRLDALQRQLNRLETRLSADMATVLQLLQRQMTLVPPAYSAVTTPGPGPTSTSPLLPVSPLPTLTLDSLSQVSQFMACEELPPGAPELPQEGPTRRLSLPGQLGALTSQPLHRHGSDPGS
Sequence of Beta-1 adrenergic receptor (P08588 whole entry): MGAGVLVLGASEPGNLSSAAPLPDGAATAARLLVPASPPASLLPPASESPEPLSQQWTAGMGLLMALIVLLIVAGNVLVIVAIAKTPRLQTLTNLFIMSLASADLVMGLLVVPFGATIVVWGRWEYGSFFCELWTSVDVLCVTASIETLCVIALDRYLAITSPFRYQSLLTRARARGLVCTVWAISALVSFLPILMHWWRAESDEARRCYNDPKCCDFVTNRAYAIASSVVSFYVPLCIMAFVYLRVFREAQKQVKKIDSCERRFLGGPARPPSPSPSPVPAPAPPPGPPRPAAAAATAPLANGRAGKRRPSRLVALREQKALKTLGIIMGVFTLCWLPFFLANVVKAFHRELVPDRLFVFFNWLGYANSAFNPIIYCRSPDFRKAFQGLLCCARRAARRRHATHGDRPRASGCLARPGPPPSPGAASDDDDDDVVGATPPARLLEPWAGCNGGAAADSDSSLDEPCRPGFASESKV

Regarding SODIUM ORTHOVANAD, the IC50 result in series [1] (sf9), in series [2], in [3], in series [4], in series [5] and in series [6] was “Not Active” each time. Besides, the IC50 result (on Cathepsin G; on Cytochrome P450 2A6; in [7]) was “Not Active” throughout. For the same compound, the Ki result in series [1] (sf9), in [2], in series [3], in series [4], in series [5] and in [6] was “Not Active” throughout. For the same compound, the Ki result (at Cathepsin G; on Cytochrome P450 2A6; in series [7]) was “Not Active” in each case.

Take `Cn1c(=O)c2nc[nH]c2n(C)c1=O.O` [THEOPHYLLINE]: the IC50 result in series [1] (sf9), in series [2], in series [3], in series [4], in series [5] and in [6] was “Not Active” throughout. Besides, the IC50 result (against Cathepsin G; against Cytochrome P450 2A6; in series [7]) was “Not Active” in each case. Also, the Ki entry (in series [3]; in series [6]; at Cytochrome P450 2A6; in [7]) was “Not Active” throughout.

For `CO[C@@H]1[C@@H](OC)[C@H](C)[C@@](O)(CC(=O)O)O[C@H]1[C@H](C)[C@H]1O[C@@]2(CC[C@@](C)([C@H]3CC[C@@](C)([C@@H]4O[C@@H]([C@H]5O[C@](C)(O)[C@H](C)C[C@@H]5C)C[C@@H]4O[C@@H]4C[C@H](OC)[C@@H](OC)[C@H](C)O4)O3)O2)C[C@H](O)[C@H]1C` [MADURAMICIN ACID], the IC50 in [1] (read-out: IC50) was 1610 nM; in series [2], “Not Active”; in series [3], “Not Active”; in series [4] it was “Not Active”; in series [5], “Not Active”; in [6], “Not Active”. The IC50 entry (against Cathepsin G; at Cytochrome P450 2A6; in [7]) was “Not Active” each time. Also, the Ki in [1] (read-out: Ki) was 234 nM; in series [3] it was “Not Active”; in series [6], “Not Active”; at Cytochrome P450 2A6, “Not Active”; in [7], “Not Active”.

As to `CN(C/C=C/C#CC(C)(C)C)Cc1cccc2ccccc12` [TERBINAFINE], the half-inhibitory concentration (IC50) entry in series [1] (sf9), in series [2], in [3], in series [4], in series [5] and in series [6] was “Not Active” throughout. In addition, the IC50 result (at Cathepsin G; on Cytochrome P450 2A6; in series [7]) was “Not Active” in each case. The Ki entry (in series [3]; in [6]; on Cytochrome P450 2A6; in series [7]) was “Not Active” in each case.

As for `CCCCNc1ccc(C(=O)OCCN(C)C)cc1` [TETRACAINE], the IC50 entry in series [1] (sf9), in series [2], in series [3], in [4], in [5] and in series [6] was “Not Active” each time. The IC50 entry (against Cathepsin G; against Cytochrome P450 2A6; in series [7]) was “Not Active” throughout. Further, the Ki result (in series [3]; in series [6]; at Cytochrome P450 2A6; in series [7]) was “Not Active” each time.

For the compound `CC[C@@H](C(=O)[C@@H](C)[C@@H](O)[C@H](C)[C@@H]1O[C@@H]([C@@H](CC)C(=O)O)CC[C@@H]1C)[C@H]1O[C@]2(C=C[C@@H](O)[C@]3(CC[C@@](C)([C@H]4CC[C@](O)(CC)[C@H](C)O4)O3)O2)[C@H](C)C[C@@H]1C` [SALINOMYCIN], the IC50 result in series [1] (sf9), in [2], in series [3], in [4], in series [5] and in series [6] was “Not Active” in each case. Besides, the IC50 entry (at Cathepsin G; at Cytochrome P450 2A6; in series [7]) was “Not Active” each time. The Ki entry (in [3]; in series [6]; on Cytochrome P450 2A6; in [7]) was “Not Active” in each case.
